Source: the NIST ThermoML archive (doi:10.1016/j.jct.2009.05.013)
Where “and” joins values, the source holds several entries; their conditions need not be identical. Identical values can stand only once. ± gives the expanded uncertainty stated by the source.

Details: Crystal, Calculated from knudsen effusion weight loss

Nc1cc(Cl)c(Cl)cc1[N+](=O)[O-] [4,5-dichloro-2-nitrobenzenamine]
Details	vapor or sublimation pressure
351.32 K	0.000199 ± 1e-05 kPa and 0.000196 ± 1e-05 kPa and 0.000193 ± 1e-05 kPa
353.21 K	0.000251 ± 1.3e-05 kPa and 0.000243 ± 1.2e-05 kPa and 0.000239 ± 1.2e-05 kPa
355.25 K	0.000288 ± 1.4e-05 kPa and 0.000286 ± 1.4e-05 kPa
357.24 K	0.000364 ± 1.8e-05 kPa and 0.000355 ± 1.8e-05 kPa
359.42 K	0.000463 ± 2.3e-05 kPa and 0.000453 ± 2.3e-05 kPa and 0.000452 ± 2.3e-05 kPa
361.45 K	0.000565 ± 2.8e-05 kPa and 0.000558 ± 2.8e-05 kPa and 0.000552 ± 2.8e-05 kPa
363.23 K	0.000665 ± 3.3e-05 kPa and 0.000673 ± 3.4e-05 kPa and 0.000675 ± 3.4e-05 kPa
365.49 K	0.000831 ± 4.2e-05 kPa and 0.000843 ± 4.2e-05 kPa and 0.000807 ± 4e-05 kPa
367.38 K	0.000995 ± 5e-05 kPa and 0.000996 ± 5e-05 kPa and 0.000976 ± 4.9e-05 kPa
